What was measured:
Assay in all cases: relative viability (nuclei count vs DMSO), 5 days (fraction); higher = more cells survive
[1] = compound: CO[C@H]1C[C@@H]2CC[C@@H](C)[C@@](O)(O2)C(=O)C(=O)N2CCCC[C@H]2C(=O)O[C@H]([C@H](C)C[C@@H]2CC[C@@H](OCCO)[C@H](OC)C2)CC(=O)[C@H](C)/C=C(\C)[C@@H](O)[C@@H](OC)C(=O)[C@H](C)C[C@H](C)/C=C/C=C/C=C/1C [Everolimus] + CS(=O)(=O)N1CCN(Cc2cc3nc(-c4cccc5[nH]ncc45)nc(N4CCOCC4)c3s2)CC1 [Pictilisib] (partner 1 µM)
Outline: (§1)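 Nuclei were stained with Hoechst during a one-step fixation (final 0.05% Triton X-100, 1% formaldehyde, 1 ug/ml Hoechst) carried out 5 days after dosing, then counted on 4× images. The cells, lung cancer lines in 1536-well plates, had been dosed by pin tool the day after seeding with one drug alone or a fixed anchor-drug dose plus five library-drug doses (not always all listed) in √10 steps. Relative viability is the nuclei count in treated wells divided by that in vehicle wells, and each value is the median of duplicate plates.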

[2] = compound: CO[C@H]1C[C@@H]2CC[C@@H](C)[C@@](O)(O2)C(=O)C(=O)N2CCCC[C@H]2C(=O)O[C@H]([C@H](C)C[C@@H]2CC[C@@H](OCCO)[C@H](OC)C2)CC(=O)[C@H](C)/C=C(\C)[C@@H](O)[C@@H](OC)C(=O)[C@H](C)C[C@H](C)/C=C/C=C/C=C/1C [Everolimus] + C[C@@H](Oc1cc(-c2cnn(C3CCNCC3)c2)cnc1N)c1c(Cl)ccc(F)c1Cl [Crizotinib] (partner 1 µM)
Outline: as §1

[3] = compound: CO[C@H]1C[C@@H]2CC[C@@H](C)[C@@](O)(O2)C(=O)C(=O)N2CCCC[C@H]2C(=O)O[C@H]([C@H](C)C[C@@H]2CC[C@@H](OCCO)[C@H](OC)C2)CC(=O)[C@H](C)/C=C(\C)[C@@H](O)[C@@H](OC)C(=O)[C@H](C)C[C@H](C)/C=C/C=C/C=C/1C [Everolimus] + Cc1nc(Nc2ncc(C(=O)Nc3c(C)cccc3Cl)s2)cc(N2CCN(CCO)CC2)n1 [Dasatinib] (partner 0.075 µM)
Outline: as §1

[4] = compound: CO[C@H]1C[C@@H]2CC[C@@H](C)[C@@](O)(O2)C(=O)C(=O)N2CCCC[C@H]2C(=O)O[C@H]([C@H](C)C[C@@H]2CC[C@@H](OCCO)[C@H](OC)C2)CC(=O)[C@H](C)/C=C(\C)[C@@H](O)[C@@H](OC)C(=O)[C@H](C)C[C@H](C)/C=C/C=C/C=C/1C [Everolimus] + O=C(CCCCCCC(=O)Nc1ccccc1)NO [Vorinostat] (partner 1 µM)
Outline: as §1

Row | Cell Line | relative viability ([1]; first compound 0.01 µM) | relative viability ([1]; first compound 0.03162 µM) | relative viability ([1]; first compound 0.1 µM) | relative viability ([1]; first compound 0.3162 µM) | relative viability ([1]; first compound 1 µM) | relative viability ([2]; first compound 0.01 µM) | relative viability ([2]; first compound 0.03162 µM) | relative viability ([2]; first compound 0.1 µM) | relative viability ([2]; first compound 0.3162 µM) | relative viability ([2]; first compound 1 µM) | relative viability ([3]; first compound 0.01 µM) | relative viability ([3]; first compound 0.03162 µM) | relative viability ([3]; first compound 0.3162 µM) | relative viability ([3]; first compound 1 µM) | relative viability ([4]; first compound 0.01 µM) | relative viability ([4]; first compound 0.03162 µM) | relative viability ([4]; first compound 0.1 µM) | relative viability ([4]; first compound 0.3162 µM) | relative viability ([4]; first compound 1 µM) | relative viability ([3]; first compound 0.1 µM)
1 | NCI-H727 | 0.268 | 0.274 | 0.309 | 0.239 | 0.275 | 0.47 | 0.443 | 0.553 | 0.49 | 0.496 | 0.242 | 0.317 | 0.445 | 0.276 | 0.915 | 0.797 | 0.79 | 0.922 | 0.886 | 
2 | NCI-H838 | 0.222 | 0.219 | 0.247 | 0.208 | 0.262 | 0.581 | 0.548 | 0.416 | 0.525 | 0.357 | 0.262 | 0.243 | 0.274 | 0.333 | 0.541 | 0.539 | 0.554 | 0.573 | 0.471 | 0.265
3 | NCI-H1355 | 0.251 | 0.238 | 0.181 | 0.265 | 0.275 | 0.524 | 0.462 | 0.46 | 0.426 | 0.438 | 0.436 | 0.402 | 0.334 | 0.316 | 0.385 | 0.331 | 0.341 | 0.365 | 0.295 | 0.315
4 | NCI-H1437 | 0.159 | 0.149 | 0.135 | 0.165 | 0.18 | 0.969 | 0.903 | 0.782 | 0.873 | 0.648 | 0.243 | 0.267 | 0.209 | 0.317 | 0.747 | 0.632 | 0.656 | 0.586 | 0.432 | 0.21
5 | NCI-H1650 | 0.47 | 0.473 | 0.477 | 0.515 | 0.469 | 0.922 | 1.06 | 0.918 | 1 | 0.719 | 0.288 | 0.225 | 0.315 | 0.295 | 0.396 | 0.388 | 0.29 | 0.365 | 0.383 | 0.263
6 | NCI-H1651 | 0.368 | 0.324 | 0.352 | 0.427 | 0.39 | 0.846 | 0.786 | 0.735 | 0.708 | 0.566 | 0.297 | 0.335 | 0.24 | 0.405 | 0.424 | 0.418 | 0.36 | 0.449 | 0.405 | 0.259
7 | NCI-H1666 | 0.295 | 0.344 | 0.309 | 0.341 | 0.295 | 0.878 | 0.776 | 0.629 | 0.877 | 0.654 | 0.826 | 0.722 | 0.78 | 0.813 | 1.04 | 1.08 | 1.04 | 1.05 | 0.92 | 0.795
8 | NCI-H1734 | 0.285 | 0.341 | 0.259 | 0.316 | 0.336 | 0.501 | 0.48 | 0.401 | 0.378 | 0.449 | 0.276 | 0.301 | 0.266 | 0.316 | 0.613 | 0.606 | 0.505 | 0.422 | 0.563 | 0.265
9 | NCI-H1755 | 0.334 | 0.381 | 0.292 | 0.354 | 0.329 | 0.777 | 0.715 | 0.679 | 0.6 | 0.554 | 0.421 | 0.232 | 0.419 | 0.318 | 0.616 | 0.599 | 0.61 | 0.568 | 0.602 | 0.37
10 | NCI-H1915 | 0.622 | 0.33 | 0.493 | 0.625 | 0.555 | 0.849 | 0.784 | 0.798 | 0.711 | 0.753 | 0.285 | 0.231 | 0.247 | 0.206 | 0.389 | 0.387 | 0.431 | 0.37 | 0.364 | 0.208
11 | NCI-H1944 | 0.315 | 0.314 | 0.248 | 0.31 | 0.284 | 0.82 | 0.878 | 0.751 | 0.827 | 0.697 | 0.179 | 0.193 | 0.184 | 0.157 | 0.373 | 0.376 | 0.315 | 0.44 | 0.336 | 0.157
12 | NCI-H1975 | 0.223 | 0.242 | 0.194 | 0.211 | 0.199 | 0.924 | 0.774 | 0.921 | 0.876 | 0.783 | 0.305 | 0.264 | 0.298 | 0.183 | 0.599 | 0.587 | 0.608 | 0.565 | 0.542 | 0.222
13 | NCI-H1993 | 0.793 | 0.739 | 0.715 | 0.786 | 0.86 | 0.688 | 0.659 | 0.702 | 0.642 | 0.705 | 0.434 | 0.449 | 0.409 | 0.452 | 0.429 | 0.488 | 0.438 | 0.377 | 0.508 | 0.341
14 | NCI-H2009 | 0.565 | 0.591 | 0.394 | 0.673 | 0.504 | 0.693 | 0.856 | 0.612 | 0.646 | 0.763 | 0.214 | 0.218 | 0.244 | 0.215 | 0.563 | 0.611 | 0.54 | 0.54 | 0.503 | 0.225

From the supplement of paper PMC10307832
